Source: the CheMixHub viscosity set
± gives the uncertainty stated by the source.

Assay: xn = mol fraction of the nth substance listed
Conditions: 101 kPa

CC(C)CCO + c1ccccc1
viscosity [mPa·s]
Conditions	308.15 K	313.15 K	318.15 K	323.15 K
x1 = 0.05	–	0.515 ± 0.006	0.484 ± 0.006	0.456 ± 0.005
x1 = 0.1	–	0.537 ± 0.006	0.505 ± 0.006	0.475 ± 0.006
x1 = 0.15	–	0.562 ± 0.007	0.527 ± 0.006	0.496 ± 0.006
x1 = 0.2	–	0.589 ± 0.007	0.552 ± 0.007	0.519 ± 0.006
x1 = 0.25	–	0.618 ± 0.007	0.58 ± 0.007	0.544 ± 0.006
x1 = 0.3	–	0.651 ± 0.008	0.61 ± 0.007	0.572 ± 0.007
x1 = 0.35	0.737 ± 0.009	0.688 ± 0.008	0.643 ± 0.008	0.602 ± 0.007
x1 = 0.4	0.782 ± 0.009	0.728 ± 0.009	0.68 ± 0.008	0.636 ± 0.008
x1 = 0.45	0.832 ± 0.01	0.774 ± 0.009	0.722 ± 0.008	0.674 ± 0.008
x1 = 0.5	0.89 ± 0.01	0.826 ± 0.01	0.769 ± 0.009	0.717 ± 0.008
x1 = 0.55	0.956 ± 0.011	0.886 ± 0.01	0.823 ± 0.01	0.766 ± 0.009
x1 = 0.6	1.032 ± 0.012	0.955 ± 0.011	0.885 ± 0.01	0.822 ± 0.01
x1 = 0.65	1.122 ± 0.013	1.036 ± 0.012	0.957 ± 0.011	0.887 ± 0.01
x1 = 0.7	1.23 ± 0.014	1.131 ± 0.013	1.042 ± 0.012	0.962 ± 0.011
